# Assay results as given in US12571052B2, “Immunomodulatory RNA” (THE TRUSTEES OF THE UNIVERSITY OF PENNSYLVANIA, priority 2017, dated 2026).
# Experiments:
# 1833 breast cancer cells = test: ISG expression in breast cancer cells after RNA transfection (qRT-PCR); assay type: cell-based, Human
# Procedure: Gene Targeting and Expression. Gene knockdown by siRNA was completed using SMARTPool siRNAs (Thermo) and transfected using 20 nM siRNA and RNAiMax (Invitrogen) transfection reagent. For stable knockdowns, shRNAs were cloned into the pGIPZ vector and transduced by virus using pCMV-VSV-G and pHR8.2AR envelope and packaging vectors in HEK293T cells. Transduced cells were selected using 1-2 ug/ml of puromycin. Wild-type and K858A/K861A binding mutant of RIG-I was cloned into the pOZ-N vector. Transduced cells were then selected with IL-2 receptor magnetic beads and expression was confirmed by Western blot for FLAG, HA, and RIG-I. RIG-I restoration was functionally confirmed by RIG-I pathway activation in response to Sendai virus infection. SRP9 and SRP14 were transiently transfected with pGFH-9 (Addgene plasmid #39538) and pGFH-14c (Addgene plasmid #39541), both gifts from Katharina Strub. Gene knockout by CRISPR was accomplished using pSpCas9 (BB)-2A-GFP (PX458) (Addgene plasmid #48138). RIG-I was knocked out utilizing the protocol described (Ran et al. (2013) Nat. Protoc. 8, 2281-2308). In brief, two distinct guide RNAs cloned into the pSpCas9 (BB)-2A-GFP backbone were transiently transfected into breast cancer cells. After 48 hours, single cells were sorted into 96 well single cell clones based on highest GFP expression. Clones were confirmed to have no RIG-I expression by immunoblot and pooled. RIG-I KO in the pooled clones were functionally confirmed by RIG-I pathway activation in response to Sendai virus infection.
# In Vitro Transcription. In vitro transcription was performed using of PCR amplified cDNA templates that contained Hepatitis Delta Virus Ribozyme to ensure homogenous 3′ ends of the transcripts of interest (Avis et al. (2012) Methods Mol. Biol. 941, 83-97). In vitro transcription was completed with the MEGAshortscript T7 Transcription Kit (ThermoFisher) according to manufacturer's instructions. RNA was DNase treated and phenol/chloroform purified. After thermocycling to ensure ribozyme cleavage, correct size transcripts were gel purified. […]
# [1] = test system: 1833 ISG-R breast cancer xenografts; test: Intratumoral injection into subcutaneous 1833 xenografts; assay type: in vivo, athymic nude mice
# Procedure: In Vivo Mouse Studies. For exosome injection studies, 1×10^6 1833 breast cancer cells were injected with Matrigel (Corning) into the flanks of 6-8 week old athymic nude mice and 10 μg of mono- or co-culture exosomes were directly injected into the tumors 3 times a week. For RNA injection studies, 50 ng of 7SL or GAPDH300 RNA encapsulated into RNAiMax liposomes were directly injected into the tumors 3 times a week. Subcutaneous tumor growth was measured by caliper. For lung colonization studies, 2×10^5 luciferase-labeled 4175 breast cancer cells were injected in the tail vein. Injections were confirmed by immediate imaging using a Xenogen IVIS 100 system. Serum was isolated from mice by cardiac puncture.
# [2] = test system: myeloid/dendritic cells in the spleen; test: Spleen myeloid/dendritic cell activation after intravenous injection; assay type: in vivo, mice
# B16-F10 tumor cells = test: B16-F10/MEF co-implantation, tumor growth and survival under checkpoint blockade; assay type: in vivo, C57BL/6 mice; details: MYC activated MEFs vs MEFs co-expressing SRP9/14; anti-CTLA-4 or anti-PD-1
# Procedure: Wild type (WT) C57BL/6 mice were injected with 5×10^4 B16-F10 tumor cells subcutaneously in the flank with 5×10^4 MYC activated mouse embryonic fibroblasts (MEFs) or MYC activated MEFs co-expressing SRP9/14. MYC activation is inducible with 4-OHT and results in the secretion of exosomes containing unshielded 7SL1 RNA, while co-expression of SRP9/14 ensures the 7SL1 RNA remains relatively shielded, allowing measurement of the stimulatory capacity specifically of the unshielded form (Nabet B Y, et al. Cell. 2017; 170 (2): 352-366.e13). Mice were subsequently treated with the anti-CTLA-4 or anti-PD-1 antibody (or not), and then tumor growth was monitored by caliper. Endpoint criterion was considered a tumor measurement of 1.5 cm in any direction.
# Tumors were implanted as described in FIGS. 25A-25B and treated with CSF1R inhibitor BLZ945 (Novartis) every 2 days for 2 weeks starting at day 0 to prevent M2 polarization of infiltrating myeloid cells. Mice were additionally treated with anti-CTLA4 (FIG. 27A) or anti-CTLA4 and anti-PD1 (FIGS. 27B and 27C) on days 5, 8, and 11. Tumor growth was monitored by caliper.
substance,measurement,setting,value
"RN7SL1: Human RN7SL1 (7SL, srpRNA) RNA, 5'ppp, in vitro transcribed or secreted unshielded in exosomes; SEQ ID NO: 2",ISG induction after transfection,"1833 breast cancer cells; 1833 cells, RIG-I wild type",induces ISGs in breast cancer cells specifically in a RIG-I-dependent manner
same,ISG induction after transfection,1833 breast cancer cells; RIG-I KO cells with re-expression of WT RIG-I,restored antiviral signaling
same,ISG induction after transfection,1833 breast cancer cells; alkaline phosphatase treatment prior to transfection,abolished ISG induction
same,tumor growth,"[1]; 50 ng liposome-encapsulated RNA intratumorally 3 times a week, RIG-I WT tumors",enhance tumor growth in a RIG-I-dependent manner
same,tumor growth,"[1]; 50 ng liposome-encapsulated RNA intratumorally, RIG-I KO tumors",no effect was observed
same,ISG expression in tumors,"[1]; tumors expressing WT RIG-I, human specific primers",an increase in ISG expression
same,myeloid/dendritic cell maturation and activation (MHCII+ and CD86+),[2],promote immune cell activation in the neutral immune environment of mouse spleens
same,response to checkpoint blockade therapy,B16-F10 tumor cells,does not significantly impact response to anti-CTLA-4 or anti-PD-1 therapy
